In patent US6406859B1 (Synaptic Pharmaceutical Corporation, priority 1992, dated 2002):
Like-named read-outs stand apart in the source and are kept apart here.

How the values were obtained:
5-HT1F receptor [1] = target: T1, 5-HT1F receptor (Homo sapiens, UniProt P30939)
T1 sequence (P30939 1-366): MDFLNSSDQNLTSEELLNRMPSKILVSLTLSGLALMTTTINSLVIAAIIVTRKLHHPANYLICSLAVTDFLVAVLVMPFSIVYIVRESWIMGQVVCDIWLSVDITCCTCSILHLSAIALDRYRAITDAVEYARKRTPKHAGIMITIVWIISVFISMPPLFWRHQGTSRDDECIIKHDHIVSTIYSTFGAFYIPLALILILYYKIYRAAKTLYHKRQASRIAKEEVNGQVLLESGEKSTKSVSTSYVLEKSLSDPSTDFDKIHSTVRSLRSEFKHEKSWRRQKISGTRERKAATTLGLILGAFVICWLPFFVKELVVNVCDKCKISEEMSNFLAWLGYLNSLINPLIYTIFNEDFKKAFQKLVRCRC
Description: (§1) The antagonist Kb was estimated by method of Furchgott (32): Kb=(Dose of antagonist)/((E50 in the presence of antagonist/control E50) −1).
(§2) Transfected NIH3T3 cells (estimated Bmax from one point competition studies=486 fmol/mg of protein) were incubated in DMEM, 5 mM theophylline, 10 mM Hepes (4-[2-Hydroxyethyl]-1-piperazineethanesulfonic acid), 10 μM pargyline, for 20 minutes at 37° C., CO2. Drug dose-effect curves were then conducted by adding 6 different final concentrations of drug, followed immediately by the addition of forskolin (10 μM). Subsequently, the cells were incubated for an additional 10 minutes at 37° C., 5% CO2. The media was aspirated and the reaction terminated by the addition of 100 mM HCl. The plates were stored at 4° C. for 15 minutes and centrifuged for 5 minutes (500×g at 4° C.) to pellet cellular debris. Aliquots of the supernatant fraction were then stored at −20° C. prior to assessment of cAMP formation by radioimmunoassay (cAMP Radioimmunoassay kit, Advanced Magnetics, Cambridge, Mass.).

5-HT1F receptor [2] = target: T1, 5-HT1F receptor; assay: [3H]5-HT displacement binding to clonal 5-HT1F cell membranes (transfected Ltk- cells); design: The entire coding region of clone hl16a was cloned into the eukaryotic expression vector pcEXV-3; expressed in transfected cells; settings: for affinity for 5-HT1F receptor in words: displacement of [3H]5-HT specific binding
Description: Stable cell lines were obtained by cotransfection with the plasmid pcEXV-3 (containing the 5-HT1F receptor gene) and the plasmid pGCcos3neo (containing the aminoglycoside transferase gene) into Ltk^− cells or NIH3T3 cells using calcium phosphate (reagents obtained from Specialty Media, Lavellette, N.J.). The cells were grown in a controlled environment (37° C. 5% CO2) an monolayers in Dulbecco's modified Eagle medium (Gibco, Grand Island, N.Y.) containing 25 mM glucose and supplemented with 10% bovine calf serum, 100 U/ml penicillin G and 100 μg/ml streptomycin sulfate.
(§3) Membrane Preparation: Membranes were prepared from transfected Ltk^− cells which were grown to 100% confluency. The cells were washed twice with phosphate-buffered saline, scraped from the culture dishes into 5 ml of ice-cold phosphate-buffered saline, and centrifuged at 200×g for 5 min at 4°. The pellet was resuspended in 2.5 ml of ice-cold Tris buffer (20 mM Tris-HCl, pH 7.4 at 23°, 5 mM EDTA) and homogenized by a Wheaton tissue grinder. The lysate was subsequently centrifuged at 200×g for 5 min at 4° to pellet large fragments which were discarded. The supernatant was collected and centrifuged at 40,000×g for 20 min at 4°. The pellet resulting from this centrifugation was washed once in ice-cold Tris wash buffer and finally resuspended in a final buffer containing 50 mM Tris-HCl and 0.5 mM EDTA, pH 7.4 at 23°. Membrane preparations were kept on ice and utilized within two hours for the radioligand binding assays.
The binding profile of drugs in competition experiments was accomplished using 10-12 concentrations of compound. Incubation times were 30 min for both saturation and displacement studies based upon initial investigations which determined equilibrium binding conditions. […] Binding was initiated by the addition of 50 μl membrane homogenates (10-20 μg). […] All experiments were performed in triplicate.

5-HT1E receptor = 5-HT1E receptor (Homo sapiens, UniProt P28566); settings: U.S. Ser. No. 803,626; cited from earlier work
Chain of 5-HT1E receptor (P28566 whole entry): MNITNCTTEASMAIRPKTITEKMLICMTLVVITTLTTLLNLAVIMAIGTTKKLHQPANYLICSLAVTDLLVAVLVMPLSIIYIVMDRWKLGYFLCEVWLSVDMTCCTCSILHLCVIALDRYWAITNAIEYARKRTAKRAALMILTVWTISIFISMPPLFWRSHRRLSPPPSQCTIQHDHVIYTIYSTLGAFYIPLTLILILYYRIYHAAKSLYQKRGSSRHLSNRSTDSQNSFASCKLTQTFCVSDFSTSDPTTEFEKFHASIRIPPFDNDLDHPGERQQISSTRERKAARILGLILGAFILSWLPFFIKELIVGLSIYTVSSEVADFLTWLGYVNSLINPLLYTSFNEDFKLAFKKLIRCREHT

5-HT1F receptor [3] = target: T1, 5-HT1F receptor; assay: Coupling to PI turnover; assay type: cell-based; design: The entire coding region of clone hl16a was cloned into the eukaryotic expression vector pcEXV-3; expressed in transfected cells; settings: dose of 10 μM
human 5-HT1F receptor = assay: Inhibition of [3H]5-HT specific binding by Gpp(NH)p (G-protein coupling); settings: mean ± S.E.M., n=3
Description: as §3
The binding profile of drugs in competition experiments was accomplished using 10-12 concentrations of compound. Incubation times were 30 min for both saturation and displacement studies based upon initial investigations which determined equilibrium binding conditions. […] Binding was initiated by the addition of 50 μl membrane homogenates (10-20 μg). […] IC50 values were converted to K1 values using the Cheng-Prusoff equation (1973). All experiments were performed in triplicate.

dog saphenous vein = settings: cited from earlier work
5-HT1F receptor [4] = target: T1, 5-HT1F receptor; assay: cell-based
Description: as §1, §2

[5] = read-out: Ki (nM) for the inhibition of [3H]5-HT specific binding, 4.5-5.5 nM [3H]5-HT, 10-12 drug concentrations, Cheng-Prusoff from IC50, mean ± S.E.M. of 2-4 determinations
[6] = read-out: Ki (nM) for the inhibition of [3H]5-HT specific binding

| Compound | Ki (5-HT1F receptor [2]) | affinity for 5-HT1F receptor in words (5-HT1F receptor [2]) | also measured |
| --- | --- | --- | --- |
| c1ccc2c(N3CCNCC3)cccc2c1 [1-Napthylpiperazine] | – | – | EC50 (5-HT1F receptor [1]; read-out: EC50 for decrease in forskolin-stimulated cAMP production): 0.0045 ± 0.0002 µM; Ki (5-HT1F receptor [2]; unit inferred, read-out: K1): 54 nM |
| Cc1[nH]c2ccc(O)cc2c1CCN [2-Methyl-5-HT] | – | – | Ki (5-HT1F receptor [2]; [5]): 413 ± 5.6 nM |
| NCCc1c[nH]c2ccc(OCc3ccccc3)cc12 [5-Benzoxytryptamine] | 1490 nM | – | – |
| NCCc1c[nH]c2ccc(C(N)=O)cc12 [5-CT, 5-carboxyamidotryptamine] | – | low affinity | affinity for 5-HT1E receptor in words (5-HT1E receptor): low affinity; affinity for 5-HT1F receptor in words (5-HT1F receptor [2]; listed as 5-carboxyamidotryptamine): significantly decreases the affinity; Ki (5-HT1F receptor [2]; [6]): 717 ± 71 nM |
| NCCc1c[nH]c2ccc(F)cc12 [5-Fluorotryptamine] | 1810 nM | – | – |
| NCCc1c[nH]c2ccc(O)cc12 [5-HT, 5-hydroxytryptamine] | – | highest affinity | maximum inhibition of cAMP production (5-HT1F receptor [1]; forskolin 10 μM): 67±5.4%; coupling to PI turnover (5-HT1F receptor [3]): no evidence for coupling of this receptor to PI turnover was detected |
| COc1ccc2[nH]cc(CCN)c2c1 [5-MT, 5-methoxytryptamine] | 1120 nM | significantly decreases the affinity | – |
| COc1ccc2[nH]cc(CCN(C)C)c2c1 [5-Methoxy-N,N-DMT, 5-methoxy-N,N-dimethyltryptamine] | 37.5 ± 1.5 nM | affinity much higher than the other 5-substituted tryptamine derivatives | – |
| CCCN(CCC)C1CCc2cccc(O)c2C1 (stereo not shown) [8-OH-DPAT] | – | very poor affinity | Ki (5-HT1F receptor [2]; [6]): 1770 nM |
| COc1cc(CC(C)N)c(OC)cc1I (stereo not shown) [DOI] | – | very poor affinity | Ki (5-HT1F receptor [2]; [6]): 1740 nM |
| CCCN(CCC)CCc1c[nH]c2ccc(C(N)=O)cc12 [DP-5-CT] | – | – | Ki (5-HT1F receptor [2]; [6]): 1610 nM |
| CN1C[C@H](C(=O)N[C@]2(C)O[C@@]3(O)[C@@H]4CCCN4C(=O)[C@H](Cc4ccccc4)N3C2=O)C[C@@H]2c3cccc4[nH]cc(c34)C[C@H]21 [Dihydroergotamine] | 276 ± 49 nM | – | – |
| C[C@@H](CO)NC(=O)[C@@H]1C=C2c3cccc4[nH]cc(c34)C[C@H]2N(C)C1 [Ergonovine] | 31 ± 1.5 nM | – | – |
| CN1C[C@H](C(=O)N[C@]2(C)O[C@@]3(O)[C@@H]4CCCN4C(=O)[C@H](Cc4ccccc4)N3C2=O)C=C2c3cccc4[nH]cc(c34)C[C@H]21 [Ergotamine] | – | – | Ki (5-HT1F receptor [2]; [5]): 171 ± 28 nM |
| Nc1nc2c(ncn2[C@@H]2O[C@H](COP(=O)(O)OP(=O)(O)NP(=O)(O)O)[C@@H](O)[C@H]2O)c(=O)[nH]1 [Gpp(NH)p] | – | – | Imax of inhibition of [3H]5-HT specific binding (human 5-HT1F receptor): 55.6±3.2% |
| COc1ccc2c3c([nH]c2c1)C(C)=NCC3 [Harmaline] | > 10000 nM | – | – |
| O=C(c1ccc(F)cc1)C1CCN(CCn2c(=O)[nH]c3ccccc3c2=O)CC1 [Ketanserin] | > 10000 nM | very poor affinity | – |
| COc1ccc2[nH]cc(CCNC(C)=O)c2c1 [Melatonin] | > 10000 nM | – | – |
| CN1C[C@@H](NS(=O)(=O)N(C)C)C[C@@H]2c3cccc4c3c(cn4C)C[C@H]21 [Mesulergine] | > 10000 nM | – | – |

| Compound | Ki (5-HT1F receptor [2]) | affinity for 5-HT1F receptor in words (5-HT1F receptor [2]) | also measured |
| --- | --- | --- | --- |
| CN1C[C@H](CNC(=O)OCc2ccccc2)C[C@@H]2c3cccc4c3c(cn4C)C[C@H]21 [Metergoline] | – | – | block of the effects of sumatriptan (dog saphenous vein): does not block the effects of sumatriptan; Ki (5-HT1F receptor [2]; [5]): 341 ± 71 nM |
| CSc1ccc2c(c1)C(N1CCN(C)CC1)Cc1ccccc1S2 (stereo not shown) [Methiothepin] | – | – | blockade of functional 5-HT response (5-HT1F receptor [1]; 5-HT 1 μM, antagonist 10 μM): completely blocked; nature of antagonism (5-HT1F receptor [1]; FIG. 3, 5-HT curves with and without antagonist): surmountable; direct effect of compound on cAMP response (5-HT1F receptor [1]; compound alone): No direct effect; Kd (5-HT1F receptor [1]; read-out: apparent KD from dose shift of 5-HT concentration-effect curve, antagonist, method of Furchgott (FIG. 3)): 0.438 ± 0.014 µM; Ki (5-HT1F receptor [2]; [5]): 652 ± 41 nM |
| CC[C@@H](CO)NC(=O)[C@@H]1C=C2c3cccc4[nH]cc(c34)C[C@H]2N(C)C1 [Methylergonovine] | – | high affinity | Ki (5-HT1F receptor [2]; [5]): 31 ± 11 nM |
| CC[C@@H](CO)NC(=O)[C@@H]1C=C2c3cccc4c3c(cn4C)C[C@H]2N(C)C1 [Methysergide] | – | high affinity | Ki (5-HT1F receptor [2]; [6]): 34 ± 4.9 nM |
| COc1ccccc1N1CCN(CCCCN2C(=O)c3ccccc3C2=O)CC1 [NAN 190] | – | – | Ki (5-HT1F receptor [2]; [5]): 203 ± 13 nM |
| CC(C)NCC(O)COc1cccc2[nH]ccc12 (stereo not shown) [Pindolol] | > 10000 nM | very poor affinity | – |
| CC(C)NCC(O)COc1cccc2ccccc12 (stereo not shown) [Propanolol] | 8710 nM | – | – |
| c1ccc2nc(N3CCNCC3)ccc2c1 [Quipanzine] | – | – | Ki (5-HT1F receptor [2]; [6]): 4670 nM |
| Cc1nc2sccn2c(=O)c1CCN1CCC(=C(c2ccc(F)cc2)c2ccc(F)cc2)CC1 [Ritanserin] | 3520 nM | – | – |
| CN1CCc2cc(Cl)c(O)cc2[C@@H](c2ccccc2)C1 [SCH 23390] | 1490 nM | – | – |
| O=C(CCCN1CCC2(CC1)C(=O)NCN2c1ccccc1)c1ccc(F)cc1 [Spiperone] | > 10000 nM | very poor affinity | – |
| FC(F)(F)c1cccc(N2CCNCC2)c1 [TFMPP] | – | – | Ki (5-HT1F receptor [2]; [5]): 1000 nM |
| NCCc1c[nH]c2ccccc12 [Tryptamine] | – | significantly decreases the affinity | Ki (5-HT1F receptor [2]; [6]): 2410 nM |
| COC(=O)[C@@H]1[C@H]2C[C@H]3c4[nH]c5ccccc5c4CCN3C[C@@H]2CC[C@@H]1O [Yohimbine] | – | fair affinity | Ki (5-HT1F receptor [2]; [6]): 92 ± 11 nM |
| COc1cc(N)c(Cl)cc1C(=O)NC1CN2CCC1CC2 (stereo not shown) [Zacopride] | > 10000 nM | very poor affinity | – |
| CN1C[C@H](CO)C=C2c3cccc4[nH]cc(c34)C[C@H]21 [lysergol] | – | – | EC50 (5-HT1F receptor [4]): 0.0088 ± 0.0043 µM |
| Clc1cccc(N2CCNCC2)c1 [mCPP] | – | – | Ki (5-HT1F receptor [2]; [6]): 2020 nM |
| COC(=O)[C@H]1[C@H]2C[C@H]3c4[nH]c5ccccc5c4CCN3C[C@H]2CC[C@@H]1O [rauwolscine] | – | fair affinity | – |
| CC(N)Cc1c[nH]c2ccc(O)cc12 (stereo not drawn) [α-Methyl-5-HT] | 184 ± 35 nM | – | – |
